The results in this text go back to patent US20230295157A1, “3-(1H-IMIDAZOL-2-YL)-2,3,8,8A-TETRAHYDROINDOLIZIN-5(1H)-ONE DERIVATIVES USEFUL AS FACTOR XIA INHIBITORS” (JANSSEN PHARMACEUTICA NV, priority 2020, published 2023).

For one assay, the target named is human plasma kallikrein (Homo sapiens (Human), UniProt P03952). Briefly: Kallikrein inhibition assay (FLINT) utilizing a quenched AMC peptide substrate. It is filed as biochemical. Particulars: 30 min preincubation, read-out: Kallikrein Kin Inh IC50; for pIC50: kinetic reads over 30 min, Z-Gly-Pro-Arg-AMC substrate 50 μM; for IC50: μM, kinetic reads. The procedure, abridged:
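Fluorogenic Z-Gly-Pro-Arg-AMC cleavage (50 μM substrate, 2 nM kallikrein, Tris pH 7.5, CaCl2, BSA, CHAPS, 2% DMSO) read kinetically at 340/440 nm for 30 min after 30-min compound pre-incubation. Compounds in 11-point 3-fold series from 1 μM; percent inhibition fitted to four-parameter equation for IC50.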

The next assay deals with Factor XIa (Homo sapiens (Human), UniProt P03951). Briefly: Factor XIa inhibition assay (FLINT) utilizing a fluorophore-quencher pair peptide substrate. Type of assay: biochemical. Conditions: 30 min preincubation, read-out: FXIa Kin Inh IC50; for pIC50: kinetic reads over 30 min. Put shortly: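 FXIa ([…]) preincubated 30 min with compound (11-point 3-fold dilution, top 100 nM, 2% DMSO), then 15 μM quenched FXI Arg146-based peptide added; Tris pH 7.5, CaCl2, BSA, CHAPS. Fluorescence 485/520 nm read kinetically every 5 min over 30 min at RT; IC50 by 4-parameter fit.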
Factor XIa, sequence (P03951 388-625): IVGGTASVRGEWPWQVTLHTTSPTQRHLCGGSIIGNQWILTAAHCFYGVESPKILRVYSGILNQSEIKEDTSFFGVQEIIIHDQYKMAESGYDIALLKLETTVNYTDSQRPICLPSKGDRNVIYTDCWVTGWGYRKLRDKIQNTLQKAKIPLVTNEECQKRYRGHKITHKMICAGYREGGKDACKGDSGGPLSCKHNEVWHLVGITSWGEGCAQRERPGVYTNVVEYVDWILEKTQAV
Factor XIa, sequence (P03951 19-387 partner): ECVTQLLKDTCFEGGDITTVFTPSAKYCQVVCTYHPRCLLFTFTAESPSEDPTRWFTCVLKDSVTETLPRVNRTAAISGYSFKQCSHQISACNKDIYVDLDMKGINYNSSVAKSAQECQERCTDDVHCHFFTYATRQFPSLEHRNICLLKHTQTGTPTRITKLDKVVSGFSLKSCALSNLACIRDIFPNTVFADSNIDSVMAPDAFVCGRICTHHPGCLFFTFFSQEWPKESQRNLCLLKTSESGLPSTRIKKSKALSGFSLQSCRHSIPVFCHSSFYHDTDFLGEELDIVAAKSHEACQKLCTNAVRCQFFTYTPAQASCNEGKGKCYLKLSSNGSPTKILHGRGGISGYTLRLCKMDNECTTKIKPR

[1] abbreviates: 5Fam-KLTRAETV-K5Tamra substrate 15 μM.

pIC50: −log10 of the molar value. Read-outs that look alike come from different tables or passages of the source.

Broadly, the pIC50 is −log10 of the IC50, conventionally taken in molar units. Broadly, the IC50 is the midpoint of a concentration-inhibition curve.

human plasma kallikrein, sequence (P03952 391-638): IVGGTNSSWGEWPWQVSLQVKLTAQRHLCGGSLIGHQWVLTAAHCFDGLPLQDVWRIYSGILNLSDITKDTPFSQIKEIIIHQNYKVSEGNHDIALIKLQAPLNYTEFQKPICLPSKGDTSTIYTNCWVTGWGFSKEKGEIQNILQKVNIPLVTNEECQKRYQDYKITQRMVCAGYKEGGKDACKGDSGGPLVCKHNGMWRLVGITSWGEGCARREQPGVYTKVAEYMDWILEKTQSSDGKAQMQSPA
human plasma kallikrein, sequence (P03952 20-390 partner): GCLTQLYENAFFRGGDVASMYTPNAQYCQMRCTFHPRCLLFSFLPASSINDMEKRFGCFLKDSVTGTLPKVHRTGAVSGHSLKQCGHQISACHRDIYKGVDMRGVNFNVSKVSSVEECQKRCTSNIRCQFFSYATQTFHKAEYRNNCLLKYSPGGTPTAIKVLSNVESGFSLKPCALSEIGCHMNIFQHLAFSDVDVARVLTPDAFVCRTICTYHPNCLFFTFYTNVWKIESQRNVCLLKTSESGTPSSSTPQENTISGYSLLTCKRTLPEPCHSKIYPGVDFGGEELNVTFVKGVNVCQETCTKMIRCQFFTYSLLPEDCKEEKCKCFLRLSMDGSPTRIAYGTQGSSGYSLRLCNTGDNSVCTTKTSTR

In the case of `CC1C[C@@H](c2ncc(-c3ccc(N)nc3F)[nH]2)N2C(=O)C=C(c3c(-n4cnnn4)ccc(Cl)c3F)CC12` (stereo partly drawn) [Example 348, (3S)-3-(5-(6-Amino-2-fluoropyridin-3-yl)-1H-imidazol-2-yl)-7-(3-chloro-2-fluoro-6-(1H-tetrazol-1-yl)phenyl)-1-methyl-2,3,8,8a-tetrahydroindolizin-5(1H)-one], the negative logarithm of the IC50 (pIC50) is 8.19 on human plasma kallikrein and 9.30 at Factor XIa (setting [1]).
For `CC1(C)C[C@@H](c2ncc(-c3ccc(N)nc3Cl)[nH]2)N2C(=O)C=C(c3c(-n4cnnn4)ccc(Cl)c3F)CC21` (stereo partly drawn) [Example 349, (3S)-3-(5-(6-Amino-2-chloropyridin-3-yl)-1H-imidazol-2-yl)-7-(3-chloro-2-fluoro-6-(1H-tetrazol-1-yl)phenyl)-1,1-dimethyl-2,3,8,8a-tetrahydroindolizin-5(1H)-one], the pIC50 is 8.25 at human plasma kallikrein and 9.22 at Factor XIa (setting [1]).
As for `CC1(C)C[C@@H](c2ncc(-c3ccc(N)nc3F)[nH]2)N2C(=O)C=C(c3c(-n4cnnn4)ccc(Cl)c3F)CC21` (stereo partly drawn) [Example 350, (3S)-3-(5-(6-Amino-2-fluoropyridin-3-yl)-1H-imidazol-2-yl)-7-(3-chloro-2-fluoro-6-(1H-tetrazol-1-yl)phenyl)-1,1-dimethyl-2,3,8,8a-tetrahydroindolizin-5(1H)-one], the results for the pIC50 at human plasma kallikrein and at Factor XIa (setting [1]) were 7.73 and 8.89, respectively.
As for `O=C1C=C(c2c(-n3cnnn3)ccc(Cl)c2F)C[C@H]2CC[C@@H](c3ncc(-c4ccnc(C(F)(F)F)c4)[nH]3)N12` [Example 351, (3S,8aR)-7-(3-Chloro-2-fluoro-6-(1H-tetrazol-1-yl)phenyl)-3-(5-(2-(trifluoromethyl)pyridin-4-yl)-1H-imidazol-2-yl)-2,3,8,8a-tetrahydroindolizin-5(1H)-one], the pIC50 was 8.11 on human plasma kallikrein and 8.57 on Factor XIa (setting [1]).
Consider `Nc1ccc(-c2cnc([C@@H]3CC[C@H]4CC(c5c(-n6cnnn6)ccc(Cl)c5F)=CC(=O)N43)[nH]2)c(Cl)n1` [Example 352, (3S,8aS)-3-(5-(6-Amino-2-chloropyridin-3-yl)-1H-imidazol-2-yl)-7-(3-chloro-2-fluoro-6-(1H-tetrazol-1-yl)phenyl)-2,3,8,8a-tetrahydroindolizin-5(1H)-one], for which the pIC50 on human plasma kallikrein is 8.31; at Factor XIa (setting [1]) it was 9.52.
On the same counts, the results for `O=C1C=C(c2c(-n3cnnn3)ccc(Cl)c2F)C[C@@H]2CC[C@@H](c3ncc(-c4ccnc(C(F)(F)F)c4)[nH]3)N12` [Example 353, (3S,8aS)-7-(3-Chloro-2-fluoro-6-(1H-tetrazol-1-yl)phenyl)-3-(5-(2-(trifluoromethyl)pyridin-4-yl)-1H-imidazol-2-yl)-2,3,8,8a-tetrahydroindolizin-5(1H)-one] are 7.76 and 7.89.
On the same counts, the results for `Nc1ccc(-c2cnc([C@@H]3CC[C@@H]4CC(c5c(-n6cnnn6)ccc(Cl)c5F)=CC(=O)N43)[nH]2)c(Cl)n1` [Example 354, (3S,8aR)-3-[5-(6-amino-2-chloro-3-pyridyl)-1H-imidazol-2-yl]-7-[3-chloro-2-fluoro-6-(tetrazol-1-yl)phenyl]-2,3,8,8a-tetrahydro-1H-indolizin-5-one] are 8.59 and 9.70.
As for `COC(=O)Nc1ccc(-c2cnc([C@@H]3CCC4CC(c5c(-n6cnnn6)ccc(Cl)c5F)=CC(=O)N43)[nH]2)cc1` (stereo partly drawn) [Example 355, Methyl (4-(2-((3S)-7-(3-chloro-2-fluoro-6-(1H-tetrazol-1-yl)phenyl)-5-oxo-1,2,3,5,8,8a-hexahydroindolizin-3-yl)-1H-imidazol-5-yl)phenyl)carbamate], the results for the pIC50 on human plasma kallikrein and at Factor XIa (setting [1]) were 8.85 and 9.70, respectively.
For the compound `Nc1ccc(-c2cnc([C@H]3CC[C@@H]4CC(c5c(-n6cnnn6)ccc(Cl)c5F)=CC(=O)N43)[nH]2)c(F)n1` [Example 356, (3R,8aR)-3-(5-(6-Amino-2-fluoropyridin-3-yl)-1H-imidazol-2-yl)-7-(3-chloro-2-fluoro-6-(1H-tetrazol-1-yl)phenyl)-2,3,8,8a-tetrahydroindolizin-5(1H)-one], the IC50 on human plasma kallikrein is over 10 µM; on Factor XIa (μM, kinetic reads), 7.4 µM.
In the case of `Nc1ccc(-c2cnc([C@H]3CC[C@H]4CC(c5c(-n6cnnn6)ccc(Cl)c5F)=CC(=O)N43)[nH]2)c(F)n1` [Example 357, (3R,8aS)-3-(5-(6-Amino-2-fluoropyridin-3-yl)-1H-imidazol-2-yl)-7-(3-chloro-2-fluoro-6-(1H-tetrazol-1-yl)phenyl)-2,3,8,8a-tetrahydroindolizin-5(1H)-one], the IC50 on human plasma kallikrein came out at 2.3 µM. In addition, at Factor XIa (setting [1]), the pIC50 was 7.19.
Turning to `Nc1ccc(-c2cnc([C@@H]3CC[C@@H]4CC(c5c(-n6cnnn6)ccc(Cl)c5F)=CC(=O)N43)[nH]2)c(F)n1` [Example 358, (3S,8aR)-3-[5-(6-amino-2-fluoro-3-pyridyl)-1H-imidazol-2-yl]-7-[3-chloro-2-fluoro-6-(tetrazol-1-yl)phenyl]-2,3,8,8a-tetrahydro-1H-indolizin-5-one], the pIC50 is 8.17 at human plasma kallikrein and 9.52 at Factor XIa (5Fam-[…]-K5Tamra substrate 15 μM).
Take `Nc1ccc(-c2cnc([C@@H]3CC[C@H]4CC(c5c(-n6cnnn6)ccc(Cl)c5F)=CC(=O)N43)[nH]2)c(F)n1` [Example 359, (3S,8aS)-3-(5-(6-Amino-2-fluoropyridin-3-yl)-1H-imidazol-2-yl)-7-(3-chloro-2-fluoro-6-(1H-tetrazol-1-yl)phenyl)-2,3,8,8a-tetrahydroindolizin-5(1H)-one]: the pIC50 at human plasma kallikrein is 7.96; on Factor XIa (setting [1]) it was 9.30.
On to `O=C1C=C(c2c(-n3cnnn3)ccc(Cl)c2F)C[C@H]2CC[C@@H](c3ncc(-c4ccnc5c4OCCO5)[nH]3)N12` [Example 361, (3S,8aR)-7-[3-chloro-2-fluoro-6-(tetrazol-1-yl)phenyl]-3-[5-(2,3-dihydro-[1,4]dioxino[2,3-b]pyridin-8-yl)-1H-imidazol-2-yl]-2,3,8,8a-tetrahydro-1H-indolizin-5-one], for which the figures for the pIC50 at human plasma kallikrein and on Factor XIa (setting [1]) were 8.21 and 9.15, respectively.
On to `Nc1ccc(-c2cnc([C@@H]3CCC4CC(c5c(-c6ccn[nH]6)ccc(Cl)c5F)=CC(=O)N43)[nH]2)c(F)n1` (stereo partly drawn) [Example 363, (3S)-3-(5-(6-Amino-2-fluoropyridin-3-yl)-1H-imidazol-2-yl)-7-(3-chloro-2-fluoro-6-(1H-pyrazol-5-yl)phenyl)-2,3,8,8a-tetrahydroindolizin-5(1H)-one], for which the IC50 on human plasma kallikrein is over 1 µM. Further, at Factor XIa (setting [1]), the pIC50 was under 7.00.
On to `Nc1ccc(-c2c[nH]c([C@@H]3CCC4CC(c5c(-c6cnc[nH]6)ccc(Cl)c5F)=CC(=O)N43)n2)c(F)n1` (stereo partly drawn) [Example 364, (3S)-3-(4-(6-Amino-2-fluoropyridin-3-yl)-1H-imidazol-2-yl)-7-(3-chloro-2-fluoro-6-(1H-imidazol-5-yl)phenyl)-2,3,8,8a-tetrahydroindolizin-5(1H)-one], for which the pIC50 on human plasma kallikrein was 6.21; at Factor XIa (setting [1]), 7.06.
For the compound `O=C1C=C(c2c(-n3cc(C(F)(F)F)nn3)ccc(Cl)c2F)CC2CC[C@@H](c3ncc(-c4c[nH]c5ncncc45)[nH]3)N12` (stereo partly drawn) [Example 365, (3S)-3-(5-(7H-pyrrolo[2,3-d]pyrimidin-5-yl)-1H-imidazol-2-yl)-7-(3-chloro-2-fluoro-6-(4-(trifluoromethyl)-1H-1,2,3-triazol-1-yl)phenyl)-2,3,8,8a-tetrahydroindolizin-5(1H)-one], the pIC50 was 8.14 on human plasma kallikrein and 8.57 at Factor XIa (setting [1]).
With `O=C1C=C(c2c(-n3cnnn3)ccc(Cl)c2F)CC2CC[C@@H](c3ncc(-c4cn[nH]c4Cl)[nH]3)N12` (stereo partly drawn) [Example 366, (3S)-3-(5-(5-chloro-1H-pyrazol-4-yl)-1H-imidazol-2-yl)-7-(3-chloro-2-fluoro-6-(1H-tetrazol-1-yl)phenyl)-2,3,8,8a-tetrahydroindolizin-5(1H)-one], the results for the pIC50 at human plasma kallikrein and at Factor XIa (setting [1]) were 7.72 and 8.85, respectively.
In the case of `CS(=O)(=O)Nc1nccc(-c2cnc([C@@H]3CC[C@@H]4CC(c5c(-n6cnnn6)ccc(Cl)c5F)=CC(=O)N43)[nH]2)c1F` [Example 367, N-(4-(2-((3S,8aR)-7-(3-chloro-2-fluoro-6-(1H-tetrazol-1-yl)phenyl)-5-oxo-1,2,3,5,8,8a-hexahydroindolizin-3-yl)-1H-imidazol-5-yl)-3-fluoropyridin-2-yl)methanesulfonamide], the pIC50 was 8.12 on human plasma kallikrein and 9.40 on Factor XIa (setting [1]).
For `CNc1ccc(-c2cnc([C@@H]3CCC4CC(c5c(-n6cnnn6)ccc(Cl)c5F)=CC(=O)N43)[nH]2)c(F)n1` (stereo partly drawn) [Example 368, (3S)-7-(3-chloro-2-fluoro-6-(1H-tetrazol-1-yl)phenyl)-3-(5-(2-fluoro-6-(methylamino)pyridin-3-yl)-1H-imidazol-2-yl)-2,3,8,8a-tetrahydroindolizin-5(1H)-one], the pIC50 on human plasma kallikrein is 8.13; on Factor XIa (setting [1]), 9.15.
As to `O=C(Nc1ccccc1-c1c[nH]c([C@@H]2CC[C@@H]3CC(c4c(-n5cnnn5)ccc(Cl)c4F)=CC(=O)N32)n1)C1CC1` [Example 369, N-(2-(2-((3S,8aR)-7-(3-chloro-2-fluoro-6-(1H-tetrazol-1-yl)phenyl)-5-oxo-1,2,3,5,8,8a-hexahydroindolizin-3-yl)-1H-imidazol-4-yl)phenyl)cyclopropanecarboxamide], the pIC50 is 9.30 on human plasma kallikrein and 9.70 at Factor XIa (setting [1]).
